# Measured values from US9587005B2 (priority 2010, dated 2017).
# Like-named read-outs stand apart in the source and are kept apart here. *1 amine or outer side, *2 acyl side, *3 side chain or, on linkers, in order; H or OH if unused. Where a SMILES comes first, the peptide text is derived from it. Side-chain parts run from the residue outwards. [ ]: non-standard residue; d: D form. The star is where a group is joined. γGlu = O=C(O)[C@H](CCC(=O)[*:2])N[*:1]; Palmitoyl = CCCCCCCCCCCCCCCC(=O)*; Aib = CC(C)(N)C(=O)O
# What was measured:
# Type in all cases: cell-based
# GLP-1 receptor = biological target: T1, GLP-1 receptor (Homo sapiens, UniProt P43220); assay: cAMP induction, firefly luciferase reporter assay in HEK293 cells co-transfected with GLP-1 receptor; conditions: for GLP-1R relative activity: Table 3, relative to the activity of the native hormone
# T1 construct: expressed in transfected cells; host or cells: HEK293
# T1 sequence (P43220 24-463): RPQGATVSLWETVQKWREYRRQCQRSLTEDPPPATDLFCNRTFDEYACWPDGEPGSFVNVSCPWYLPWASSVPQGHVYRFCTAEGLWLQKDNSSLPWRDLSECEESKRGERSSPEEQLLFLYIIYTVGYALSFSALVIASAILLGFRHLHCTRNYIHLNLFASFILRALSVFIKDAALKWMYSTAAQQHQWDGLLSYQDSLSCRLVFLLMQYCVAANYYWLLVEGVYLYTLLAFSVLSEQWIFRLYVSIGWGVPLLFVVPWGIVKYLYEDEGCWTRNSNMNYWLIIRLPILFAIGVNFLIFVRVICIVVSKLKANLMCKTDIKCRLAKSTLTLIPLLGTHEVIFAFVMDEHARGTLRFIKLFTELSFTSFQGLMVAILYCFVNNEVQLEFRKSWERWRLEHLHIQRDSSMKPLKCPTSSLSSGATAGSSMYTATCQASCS
# Excerpt: (§1) This example describes an exemplary method of testing the biological activity of the peptides of the present disclosures, which method involves assaying cAMP synthesis.
# glucagon receptor = biological target: T2, glucagon receptor (Homo sapiens, UniProt P47871); assay: cAMP induction, firefly luciferase reporter assay in HEK293 cells co-transfected with glucagon receptor; conditions: for EC50: EC50 (nM) at Glucagon Receptor; for GR relative activity: Table 3, relative to the activity of the native hormone
# T2 construct: expressed in transfected cells; host or cells: HEK293
# T2 sequence (P47871 26-477): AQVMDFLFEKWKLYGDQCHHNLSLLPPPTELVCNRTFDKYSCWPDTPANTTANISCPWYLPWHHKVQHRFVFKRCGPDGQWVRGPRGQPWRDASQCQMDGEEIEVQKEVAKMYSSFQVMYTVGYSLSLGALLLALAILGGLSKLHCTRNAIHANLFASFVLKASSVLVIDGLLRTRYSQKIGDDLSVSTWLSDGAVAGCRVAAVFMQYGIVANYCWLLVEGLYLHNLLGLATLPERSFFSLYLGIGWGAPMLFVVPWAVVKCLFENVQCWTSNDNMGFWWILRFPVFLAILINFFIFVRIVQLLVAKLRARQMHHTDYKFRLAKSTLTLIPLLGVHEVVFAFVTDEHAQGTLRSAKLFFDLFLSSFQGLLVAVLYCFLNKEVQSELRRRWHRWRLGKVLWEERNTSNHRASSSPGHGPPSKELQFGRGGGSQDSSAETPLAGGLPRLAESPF
# Excerpt: as §1
# GIP receptor = biological target: T3, GIP receptor (Homo sapiens, UniProt P48546); assay: cAMP induction, firefly luciferase reporter assay in HEK293 cells co-transfected with GIP receptor; conditions: for GIPR relative activity: Table 3, relative to the activity of the native hormone
# T3 sequence (P48546 22-466): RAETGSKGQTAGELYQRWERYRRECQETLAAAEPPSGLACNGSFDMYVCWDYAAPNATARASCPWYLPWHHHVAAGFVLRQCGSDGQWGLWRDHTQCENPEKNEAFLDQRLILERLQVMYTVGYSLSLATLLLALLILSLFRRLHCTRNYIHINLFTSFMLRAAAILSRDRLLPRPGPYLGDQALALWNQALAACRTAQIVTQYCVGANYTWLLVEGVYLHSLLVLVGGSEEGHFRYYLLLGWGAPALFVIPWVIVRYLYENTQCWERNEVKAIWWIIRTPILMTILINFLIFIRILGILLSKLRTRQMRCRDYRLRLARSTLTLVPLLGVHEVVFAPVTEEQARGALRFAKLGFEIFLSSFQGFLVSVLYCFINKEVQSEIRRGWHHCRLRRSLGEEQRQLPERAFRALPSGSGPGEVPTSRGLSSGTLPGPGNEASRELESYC
# [1] = EC50 (nM) at GLP-1 Receptor, Table 4, Example 9, composite of multiple different activity assays
# [2] = Table 4, Example 9, composite of multiple different activity assays
# [3] = EC50 (nM) at GIP Receptor, Table 4, Example 9, composite of multiple different activity assays
# [4] = EC50 (nM) at GLP-1 Receptor, Table 6, Example 12
# [5] = EC50 (nM) at GIP Receptor, Table 6, Example 12
# [6] = Table 3, Example 8, read-out: GLP-1R EC50
# [7] = Table 3, Example 8, read-out: GIPR EC50
Compound,EC50 (GLP-1 receptor; [6]),GLP-1R relative activity (GLP-1 receptor),GR relative activity (glucagon receptor),EC50 (GIP receptor; [7]),GIPR relative activity (GIP receptor),also measured
CCCCCCCCCCCCCCCC(=O)N[C@@H](CCC(=O)NCCCC[C@H](NC(=O)[C@H](CC(=O)O)NC(=O)[C@H](CO)NC(=O)[C@@H](NC(=O)[C@H](Cc1ccccc1)NC(=O)[C@@H](NC(=O)CNC(=O)[C@H](CCC(N)=O)NC(=O)C(C)(C)NC(=O)[C@@H](N)Cc1c[nH]cn1)[C@@H](C)O)[C@@H](C)O)C(=O)N[C@@H](CO)C(=O)N[C@@H](CCCCN)C(=O)N[C@@H](Cc1ccc(O)cc1)C(=O)N[C@@H](CC(C)C)C(=O)N[C@@H](CC(=O)O)C(=O)N[C@@H](CCC(=O)O)C(=O)N[C@@H](CCCNC(=N)N)C(=O)N[C@@H](CCCNC(=N)N)C(=O)N[C@@H](C)C(=O)NC(C)(C)C(=O)N[C@@H](CCC(=O)O)C(=O)N[C@@H](Cc1ccccc1)C(=O)N[C@H](C(=O)N[C@@H](CCC(N)=O)C(=O)N[C@@H](Cc1c[nH]c2ccccc12)C(=O)N[C@@H](CC(C)C)C(=O)N[C@@H](CC(C)C)C(=O)N[C@@H](CC(=O)O)C(=O)NCC(=O)NCC(=O)N1CCC[C@H]1C(=O)N[C@@H](CO)C(=O)N[C@@H](CO)C(=O)NCC(=O)N[C@@H](C)C(=O)N1CCC[C@H]1C(=O)N1CCC[C@H]1C(=O)N1CCC[C@H]1C(=O)N[C@@H](CO)C(N)=O)C(C)C)C(=O)O [compound 37] (H-H[Aib]QGTFTSDK([γGlu-Palmitoyl])SKYLDERRA[Aib]EFVQWLLDGGPSSGAPPPS-NH2; N-terminus assumed),,,,,,EC50 (GLP-1 receptor; [1]): 0.006 nM; EC50 (glucagon receptor; [2]): 0.004 nM; EC50 (GIP receptor; [3]): 0.002 nM
CCCCCCCCCCCCCCCC(=O)N[C@@H](CCC(=O)NCCCC[C@H](NC(=O)[C@H](CC(=O)O)NC(=O)[C@H](CO)NC(=O)[C@@H](NC(=O)[C@H](Cc1ccccc1)NC(=O)[C@@H](NC(=O)CNC(=O)[C@H](CCC(=O)O)NC(=O)C(C)(C)NC(=O)[C@@H](N)Cc1c[nH]cn1)[C@@H](C)O)[C@@H](C)O)C(=O)N[C@@H](CO)C(=O)N[C@@H](CCCCN)C(=O)N[C@@H](Cc1ccc(O)cc1)C(=O)N[C@@H](CC(C)C)C(=O)N[C@@H](CC(=O)O)C(=O)N[C@@H](CCC(=O)O)C(=O)N[C@@H](CCCNC(=N)N)C(=O)N[C@@H](C)C(=O)N[C@@H](C)C(=O)N[C@@H](CCC(N)=O)C(=O)N[C@@H](CC(=O)O)C(=O)N[C@@H](Cc1ccccc1)C(=O)N[C@H](C(=O)N[C@@H](CCC(N)=O)C(=O)N[C@@H](Cc1c[nH]c2ccccc12)C(=O)N[C@@H](CC(C)C)C(=O)N[C@@H](CC(C)C)C(=O)N[C@@H](CC(=O)O)C(=O)NCC(=O)NCC(=O)N1CCC[C@H]1C(=O)N[C@@H](CO)C(=O)N[C@@H](CO)C(=O)NCC(=O)N[C@@H](C)C(=O)N1CCC[C@H]1C(=O)N1CCC[C@H]1C(=O)N1CCC[C@H]1C(=O)N[C@@H](CO)C(N)=O)C(C)C)C(=O)O [compound 39] (H-H[Aib]EGTFTSDK([γGlu-Palmitoyl])SKYLDERAAQDFVQWLLDGGPSSGAPPPS-NH2; N-terminus assumed),,,,,,EC50 (GLP-1 receptor; [1]): 0.008 nM; EC50 (glucagon receptor; [2]): 1.28 nM; EC50 (GIP receptor; [3]): 0.026 nM
CCCCCCCCCCCCCCCC(=O)N[C@@H](CCC(=O)NCCCC[C@H](NC(=O)[C@H](CC(=O)O)NC(=O)[C@H](CO)NC(=O)[C@@H](NC(=O)[C@H](Cc1ccccc1)NC(=O)[C@@H](NC(=O)CNC(=O)[C@H](CCC(N)=O)NC(=O)C(C)(C)NC(=O)[C@@H](N)Cc1c[nH]cn1)[C@@H](C)O)[C@@H](C)O)C(=O)N[C@@H](CO)C(=O)N[C@@H](CCCCN)C(=O)N[C@@H](Cc1ccc(O)cc1)C(=O)N[C@@H](CC(C)C)C(=O)N[C@@H](CC(=O)O)C(=O)N[C@@H](CCC(=O)O)C(=O)N[C@@H](CCCNC(=N)N)C(=O)N[C@@H](CCCNC(=N)N)C(=O)N[C@@H](C)C(=O)NC(C)(C)C(=O)N[C@@H](CCC(=O)O)C(=O)N[C@@H](Cc1ccccc1)C(=O)N[C@H](C(=O)N[C@@H](CCC(N)=O)C(=O)N[C@@H](Cc1c[nH]c2ccccc12)C(=O)N[C@@H](CC(C)C)C(=O)N[C@@H](CC(C)C)C(=O)N[C@@H](CC(=O)O)C(=O)NCC(=O)NCC(=O)N1CCC[C@H]1C(=O)N[C@@H](CO)C(=O)N[C@@H](CO)C(=O)NCC(=O)N[C@@H](C)C(=O)N1CCC[C@H]1C(=O)N1CCC[C@H]1C(=O)N1CCC[C@H]1C(=O)N[C@@H](CO)C(N)=O)C(C)C)C(=O)O [compound 79] (H-H[Aib]QGTFTSDK([γGlu-Palmitoyl])SKYLDERRA[Aib]EFVQWLLDGGPSSGAPPPS-NH2; N-terminus assumed),,,,,,"EC50 (GLP-1 receptor; [4]): 0.006 nM; EC50 (glucagon receptor; Table 6, Example 12): 0.004 nM; EC50 (GIP receptor; [5]): 0.003 nM"
CCCCCCCCCCCCCCCC(=O)N[C@@H](CCC(=O)N[C@@H](CCC(=O)NCCCC[C@H](NC(=O)[C@H](CC(=O)O)NC(=O)[C@H](CO)NC(=O)[C@@H](NC(=O)[C@H](Cc1ccccc1)NC(=O)[C@@H](NC(=O)CNC(=O)[C@H](CCC(N)=O)NC(=O)C(C)(C)NC(=O)[C@@H](N)Cc1ccc(O)cc1)[C@@H](C)O)[C@@H](C)O)C(=O)N[C@@H](CO)C(=O)N[C@H](C(=O)N[C@@H](Cc1ccc(O)cc1)C(=O)N[C@@H](CC(C)C)C(=O)N[C@@H](CC(=O)O)C(=O)N[C@@H](CCCCN)C(=O)N[C@@H](CCC(N)=O)C(=O)N[C@@H](C)C(=O)N[C@@H](C)C(=O)NC(C)(C)C(=O)N[C@@H](CCC(=O)O)C(=O)N[C@@H](Cc1ccccc1)C(=O)N[C@H](C(=O)N[C@@H](CC(N)=O)C(=O)N[C@@H](Cc1c[nH]c2ccccc12)C(=O)N[C@@H](CC(C)C)C(=O)N[C@@H](CC(C)C)C(=O)N[C@@H](C)C(=O)NCC(=O)NCC(=O)N1CCC[C@H]1C(=O)N[C@@H](CO)C(=O)N[C@@H](CO)C(=O)NCC(=O)N[C@@H](C)C(=O)N1CCC[C@H]1C(=O)N1CCC[C@H]1C(=O)N1CCC[C@H]1C(=O)N[C@@H](CO)C(N)=O)C(C)C)[C@@H](C)CC)C(=O)O)C(=O)O [compound 81] (H-Y[Aib]QGTFTSDK([γGlu-γGlu-Palmitoyl])SIYLDKQAA[Aib]EFVNWLLAGGPSSGAPPPS-NH2; N-terminus assumed),,,,,,"EC50 (GLP-1 receptor; [4]): 0.008 nM; EC50 (glucagon receptor; Table 6, Example 12): 0.073 nM; EC50 (GIP receptor; [5]): 0.005 nM"
CCCCCCCCCCCCCCCC(=O)N[C@@H](CCC(=O)N[C@@H](CCC(=O)NCCCC[C@H](NC(=O)[C@H](CC(=O)O)NC(=O)[C@H](CO)NC(=O)[C@@H](NC(=O)[C@H](Cc1ccccc1)NC(=O)[C@@H](NC(=O)CNC(=O)[C@H](CCC(N)=O)NC(=O)C(C)(C)NC(=O)[C@@H](N)Cc1ccc(O)cc1)[C@@H](C)O)[C@@H](C)O)C(=O)N[C@@H](CO)C(=O)N[C@H](C(=O)N[C@@H](Cc1ccc(O)cc1)C(=O)N[C@@H](CC(C)C)C(=O)N[C@@H](CC(=O)O)C(=O)N[C@@H](CCCCN)C(=O)N[C@@H](CCC(N)=O)C(=O)N[C@@H](C)C(=O)N[C@@H](C)C(=O)NC(C)(C)C(=O)N[C@@H](CCC(=O)O)C(=O)N[C@@H](Cc1ccccc1)C(=O)N[C@H](C(=O)N[C@@H](CC(N)=O)C(=O)N[C@@H](Cc1c[nH]c2ccccc12)C(=O)N[C@@H](CC(C)C)C(=O)N[C@@H](CC(C)C)C(=O)N[C@@H](CC(=O)O)C(=O)NCC(=O)NCC(=O)N1CCC[C@H]1C(=O)N[C@@H](CO)C(=O)N[C@@H](CO)C(=O)NCC(=O)N[C@@H](C)C(=O)N1CCC[C@H]1C(=O)N1CCC[C@H]1C(=O)N1CCC[C@H]1C(=O)N[C@@H](CO)C(N)=O)C(C)C)[C@@H](C)CC)C(=O)O)C(=O)O [compound 91] (H-Y[Aib]QGTFTSDK([γGlu-γGlu-Palmitoyl])SIYLDKQAA[Aib]EFVNWLLDGGPSSGAPPPS-NH2; N-terminus assumed),,,,,,"EC50 (GLP-1 receptor; EC50 (nM) at GLP-1 Receptor, Table 7, Example 13): 0.008 nM; EC50 (glucagon receptor; Table 7, Example 13): 0.073 nM; EC50 (GIP receptor; EC50 (nM) at GIP Receptor, Table 7, Example 13): 0.005 nM"
"Example 8 peptide: Tyr1, AIB2, Glu16/Lys20 lactam, Leu-Ala-Gly 27-29, GPSSGAPPPS 30-39, or a peptide lacking a lactam [mt-217]",0.222 nM,11.26%,0.82%,9.57 nM,0.20%,
"Example 8 peptide: Tyr1, AIB2, Glu16/Lys20 lactam, Leu-Ala-Gly 27-29, GPSSGAPPPS 30-39, or a peptide lacking a lactam [mt-218]",0.338 nM,7.40%,0.70%,14.3 nM,0.13%,
"Example 8 peptide: Tyr1, AIB2, Glu16/Lys20 lactam, Leu-Ala-Gly 27-29, GPSSGAPPPS 30-39, or a peptide lacking a lactam [mt-219]",0.151 nM,16.56%,0.65%,6.17 nM,.31%,
"Example 8 peptide: Tyr1, AIB2, Glu16/Lys20 lactam, Leu-Ala-Gly 27-29, GPSSGAPPPS 30-39, or a peptide lacking a lactam [mt-220]",0.18 nM,13.89%,1.18%,10.3 nM,0.19%,
